Results on two compounds are retold here after patent publication US6221914A, “Sulfonamide bridging compounds that inhibit tryptase activity” (Array Biopharma Inc., priority 1998, dated 2001).

Assay type in all cases: biochemical
Experiment [1] deals with T1, Bovine Pancreatic Chymotrypsin (Bos taurus, UniProt P00766).
T1 construct: from tissue; host or cells: bovine pancreas
The experiment in a line: Ki determination, bovine pancreatic chymotrypsin (N-Suc-Ala-Ala-Pro-Phe-pNA). To be noted: 100 mM Tris-HCl, pH 7.8, 10 mM CaCl2; read-out: Experimentally Determined Ki, Chymotrypsin. A digest of the protocol:
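Enzyme was preincubated with test compound for 15 min at 37° C before N-Suc-Ala-Ala-Pro-Phe-pNA was added, in 100 mM Tris-HCl, pH 7.8, 10 mM CaCl2. p-Nitroaniline release was read at 405 nm. Ki came from the tight-binding equation with [E]o set by active-site titration and corrected for substrate, or from competitive-inhibitor equations when Ki >>[E]o.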

The target of the next experiment is r-tissue kallikrein (Homo sapiens, UniProt P06870). The experiment can be described thus: Ki determination, r-tissue kallikrein (DL-Val-Leu-Arg-pNA). The settings on record: 50 mM Tris-HCl, pH 7.8, 200 mM NaCl, 0.05% BSA; read-out: Experimentally Determined Ki, Tissue Kallikrein. The gist of the method: (§1)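 Enzyme preincubated with test compound 15 min at 37° C in 50 mM Tris-HCl pH 7.8, 200 mM NaCl, 0.05% BSA; residual activity read at 405 nm after adding H-D-Prolyl-Phe-Arg-pNA (plasma) or DL-Val-Leu-Arg-pNA (tissue). Ki from tight-binding equation (enzyme active-site titrated) corrected for substrate, or competitive-inhibitor equation when Ki >>[E]o.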

In experiment [2] the target is T2, Human Neutrophil Cathepsin G (Homo sapiens, UniProt P08311).
T2 construct: from tissue; host or cells: human neutrophils
T2 sequence (P08311 21-255): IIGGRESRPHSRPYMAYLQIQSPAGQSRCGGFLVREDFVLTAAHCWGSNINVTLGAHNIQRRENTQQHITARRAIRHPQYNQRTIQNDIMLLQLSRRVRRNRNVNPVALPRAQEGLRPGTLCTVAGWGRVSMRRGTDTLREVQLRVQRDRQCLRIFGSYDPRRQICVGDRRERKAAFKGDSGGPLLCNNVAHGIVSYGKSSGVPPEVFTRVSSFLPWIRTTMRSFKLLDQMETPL
The experiment can be described thus: Ki determination, human neutrophil cathepsin G (N-Suc-Ala-Ala-Pro-Phe-pNA). To be noted: 625 mM Tris-HCl, pH 7.5, 2.5 mM MgCl2, 0.125% Brij 35; read-out: Experimentally Determined Ki, Cathepsin G. A digest of the protocol: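 Cathepsin G preincubated with test compound 15 min at 37° C, then N-Suc-Ala-Ala-Pro-Phe-pNA added in 625 mM Tris-HCl pH 7.5, 2.5 mM MgCl2, 0.125% Brij 35. p-Nitroaniline read at 405 nm.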

Experiment [3] concerns the target T3, Bovine pancreatic Trypsin (Bos taurus, UniProt P00760).
T3 construct: from tissue; host or cells: bovine pancreas
T3 sequence (P00760 24-246): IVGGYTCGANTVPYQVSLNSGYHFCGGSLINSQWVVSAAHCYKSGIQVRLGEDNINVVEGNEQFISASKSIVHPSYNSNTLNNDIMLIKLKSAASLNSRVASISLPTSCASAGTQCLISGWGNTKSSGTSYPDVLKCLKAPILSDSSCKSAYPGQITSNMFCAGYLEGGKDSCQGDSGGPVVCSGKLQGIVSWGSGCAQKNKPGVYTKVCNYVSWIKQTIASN
The experiment in a line: Ki determination, bovine pancreatic trypsin (N-a-Benzoyl-L-Arg-pNA). To be noted: 50 mM Tris-HCl, pH 8.2, 20 mM CaCl2; read-out: Experimentally Determined Ki, Trypsin. A digest of the protocol:
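TPCK-treated bovine trypsin was preincubated with compound for 15 min at 37° C in 50 mM Tris-HCl pH 8.2, 20 mM CaCl2, then N-a-Benzoyl-L-Arg-pNA was added and p-nitroaniline read at 405 nm. Ki came from the tight-binding equation, with [E]o from active-site titration and a substrate correction, or from competitive-inhibitor equations when Ki >>[E]o.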

Another experiment addresses T4, Human plasma factor Xa (Homo sapiens, UniProt P00742).
T4 construct: from tissue; host or cells: human plasma
The experiment in a line: Ki determination, human plasma factor Xa (N-Benzoyl-Ile-Glu-Gly-Arg-pNA). To be noted: 50 mM Tris-HCl, pH 7.8, 200 mM NaCl, 0.05% BSA; read-out: Experimentally Determined Ki, Factor Xa. A digest of the protocol:
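Enzyme preincubated with compound 15 min at 37° C in 50 mM Tris-HCl pH 7.8, 200 mM NaCl, 0.05% BSA, then N-Benzoyl-Ile-Glu-Gly-Arg-pNA added and p-nitroaniline read at 405 nm. Ki from tight-binding equation with active-site-titrated enzyme, corrected for substrate, or from competitive-inhibitor equations when Ki >> [E]o.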

The next experiment has as its target T5, Human plasma kallikrein (Homo sapiens, UniProt P03952).
T5 construct: from tissue; host or cells: human plasma
The experiment can be described thus: Ki determination, human plasma kallikrein (H-D-Prolyl-Phe-Arg-pNA). The settings on record: 50 mM Tris-HCl, pH 7.8, 200 mM NaCl, 0.05% BSA; read-out: Experimentally Determined Ki, Plasma Kallikrein. The gist of the method:
as §1

The next experiment has as its target T6, Human plasma thrombin (Homo sapiens, UniProt P00734).
T6 construct: from tissue; host or cells: human plasma
The experiment can be described thus: Ki determination, human plasma thrombin (H-D-Phe-Pip-Arg-pNA). To be noted: 50 mM Tris-HCl, pH 8.3, 100 mM NaCl, 1% BSA; read-out: Experimentally Determined Ki, Thrombin. A digest of the protocol:
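Plasma thrombin preincubated with compound 15 min at 37 °C in 50 mM Tris-HCl pH 8.3, 100 mM NaCl, 1% BSA, then H-D-Phe-Pip-Arg-pNA added; p-nitroaniline release read at 405 nm. Ki from tight-binding equation (active-site-titrated enzyme) corrected for substrate, or competitive-inhibitor equation when Ki >> [E]o.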

The target in a further experiment is T7, Human plasma plasmin (Homo sapiens, UniProt P00747).
T7 construct: from tissue; host or cells: human plasma
The experiment can be described thus: Ki determination, human plasma plasmin (Tosyl-Gly-Pro-Lys-pNA). The settings on record: 100 mM Tris-HCl, pH 7.4, 100 mM NaCl, 0.05% Triton X-100; read-out: Experimentally Determined Ki, Plasmin. The gist of the method:
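Enzyme preincubated with inhibitor 15 min at 37° C. in 100 mM Tris-HCl pH 7.4, 100 mM NaCl, 0.05% Triton X-100, then Tosyl-Gly-Pro-Lys-pNA added; p-nitroaniline release followed at 405 nm. Ki from tight-binding equation (active-site-titrated [E]o), corrected for substrate, or competitive-inhibitor equation when Ki >>[E]o.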

T5 sequence (P03952 391-638 limits assumed): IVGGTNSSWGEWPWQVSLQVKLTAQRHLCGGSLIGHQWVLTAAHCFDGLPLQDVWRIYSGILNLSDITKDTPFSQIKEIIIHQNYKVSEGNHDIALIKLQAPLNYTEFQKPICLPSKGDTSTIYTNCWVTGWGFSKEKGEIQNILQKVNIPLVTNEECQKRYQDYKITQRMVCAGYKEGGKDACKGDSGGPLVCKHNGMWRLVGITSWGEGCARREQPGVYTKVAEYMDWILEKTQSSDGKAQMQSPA
T5 sequence (P03952 20-390 partner limits assumed): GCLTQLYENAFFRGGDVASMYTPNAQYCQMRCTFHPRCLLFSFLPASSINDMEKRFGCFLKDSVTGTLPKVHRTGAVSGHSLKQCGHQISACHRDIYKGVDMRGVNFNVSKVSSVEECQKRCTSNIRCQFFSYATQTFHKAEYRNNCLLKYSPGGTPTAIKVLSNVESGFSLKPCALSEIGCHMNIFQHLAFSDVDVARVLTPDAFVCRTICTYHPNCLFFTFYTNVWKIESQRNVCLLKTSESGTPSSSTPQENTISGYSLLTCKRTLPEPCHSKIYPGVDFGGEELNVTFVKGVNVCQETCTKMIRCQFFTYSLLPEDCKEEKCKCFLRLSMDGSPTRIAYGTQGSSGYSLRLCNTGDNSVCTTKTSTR
T7 sequence (P00747 581-810 limits assumed): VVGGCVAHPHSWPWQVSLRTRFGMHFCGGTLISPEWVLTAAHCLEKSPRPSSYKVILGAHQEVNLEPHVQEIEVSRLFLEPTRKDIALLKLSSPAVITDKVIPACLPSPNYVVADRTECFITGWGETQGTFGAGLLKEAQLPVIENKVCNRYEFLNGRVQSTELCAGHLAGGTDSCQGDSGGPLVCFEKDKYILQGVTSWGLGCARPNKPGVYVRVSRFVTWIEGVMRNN
T7 sequence (P00747 97-580 partner limits assumed): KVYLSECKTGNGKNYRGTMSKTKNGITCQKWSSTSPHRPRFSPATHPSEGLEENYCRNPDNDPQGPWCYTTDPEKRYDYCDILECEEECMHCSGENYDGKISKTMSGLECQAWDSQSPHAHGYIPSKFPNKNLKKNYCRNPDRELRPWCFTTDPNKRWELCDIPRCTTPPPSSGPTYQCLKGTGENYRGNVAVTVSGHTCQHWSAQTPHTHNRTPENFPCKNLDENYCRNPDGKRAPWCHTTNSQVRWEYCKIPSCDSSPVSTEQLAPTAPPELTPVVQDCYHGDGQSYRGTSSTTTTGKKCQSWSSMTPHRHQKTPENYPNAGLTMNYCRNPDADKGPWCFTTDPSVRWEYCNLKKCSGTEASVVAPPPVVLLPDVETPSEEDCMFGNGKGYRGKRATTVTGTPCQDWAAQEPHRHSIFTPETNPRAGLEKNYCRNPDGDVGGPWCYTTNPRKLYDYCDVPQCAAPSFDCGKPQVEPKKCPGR
Chain of r-tissue kallikrein (P06870 25-262): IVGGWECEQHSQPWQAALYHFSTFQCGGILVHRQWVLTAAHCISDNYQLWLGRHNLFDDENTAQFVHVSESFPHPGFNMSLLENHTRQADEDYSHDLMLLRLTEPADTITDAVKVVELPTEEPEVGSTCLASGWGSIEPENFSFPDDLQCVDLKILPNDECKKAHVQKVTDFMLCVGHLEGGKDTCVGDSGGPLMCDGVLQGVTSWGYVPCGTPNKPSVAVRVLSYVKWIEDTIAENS
T4 sequence (P00742 235-488 limits assumed): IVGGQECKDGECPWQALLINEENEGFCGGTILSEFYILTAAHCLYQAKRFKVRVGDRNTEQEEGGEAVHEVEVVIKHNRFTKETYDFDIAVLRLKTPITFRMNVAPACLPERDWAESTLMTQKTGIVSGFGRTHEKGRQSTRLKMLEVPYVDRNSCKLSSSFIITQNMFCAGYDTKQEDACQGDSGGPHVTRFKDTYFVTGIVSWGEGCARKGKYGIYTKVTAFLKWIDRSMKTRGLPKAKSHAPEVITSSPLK
T4 sequence (P00742 41-179 partner limits assumed): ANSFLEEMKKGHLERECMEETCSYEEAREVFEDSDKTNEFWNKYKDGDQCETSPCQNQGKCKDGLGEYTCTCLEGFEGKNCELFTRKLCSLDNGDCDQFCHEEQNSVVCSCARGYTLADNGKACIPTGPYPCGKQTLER

Take `N=C(N)c1ccc2[nH]c(CC(=O)NCc3ccc(OCCCCOc4ccc(CNC(=O)Cc5nc6cc(C(=N)N)ccc6[nH]5)cc4)cc3)nc2c1` [Example 109]: the Ki in experiment [1] is 14.7 µM; at r-tissue kallikrein, greater than 100 µM; in experiment [2] it was greater than 100 µM; in experiment [3], 11.4 µM; at Human plasma factor Xa, 40 µM; at Human plasma kallikrein, 2.5 µM. For the same compound, the Ki on Human plasma thrombin is greater than 100 µM; at Human plasma plasmin, 0.11 µM.
As for `N=C(N)c1ccc2sc(C(=O)NCc3ccc(OCCCOc4ccc(CNC(=O)c5cc6cc(C(=N)N)ccc6s5)cc4)cc3)cc2c1` [Example 117, 1,3-Bis-{4-[(5-carbamidoyl-2-benzthiophenyl-carbamido)-methyl]-phenoxy}-propane], the Ki in experiment [1] was 40 µM; at r-tissue kallikrein it was greater than 100 µM; in experiment [2] it was greater than 100 µM; in experiment [3], 13 µM; on Human plasma factor Xa, 59 µM; at Human plasma kallikrein, greater than 100 µM. The Ki was greater than 100 µM at Human plasma thrombin and 50 µM on Human plasma plasmin.

Broadly, the Ki is a measure of affinity in units of concentration, obtained from inhibition or displacement.
